{"source": "paper PMC6063787", "about": "(Nature, 2018)", "key": {"[1]": {"biological_target": "T1, NfMCU (mitochondrial calcium uniporter ortholog) (Aspergillus fischeri, UniProt A1CWT6)", "T1 sequence (A1CWT6 76-488)": "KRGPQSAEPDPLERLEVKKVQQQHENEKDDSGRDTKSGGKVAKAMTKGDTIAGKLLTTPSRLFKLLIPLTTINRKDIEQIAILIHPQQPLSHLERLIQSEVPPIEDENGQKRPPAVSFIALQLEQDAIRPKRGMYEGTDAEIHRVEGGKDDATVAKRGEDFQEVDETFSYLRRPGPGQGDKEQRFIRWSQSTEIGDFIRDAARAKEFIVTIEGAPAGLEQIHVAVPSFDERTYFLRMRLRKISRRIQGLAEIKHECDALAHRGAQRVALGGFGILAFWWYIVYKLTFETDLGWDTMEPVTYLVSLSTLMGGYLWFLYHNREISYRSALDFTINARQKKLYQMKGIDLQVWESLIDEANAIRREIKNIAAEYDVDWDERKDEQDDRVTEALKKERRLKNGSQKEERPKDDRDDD", "experiment": "[…] flux block in proteoliposomes of purified NfMCU", "format": "cell-based"}, "cryo-EM structure": {"biological_target": "the molecule itself", "experiment": "cryo-EM structure"}}, "data": [{"molecule": "[NH2][Ru-3]([NH2])([NH2])([NH3+])([O]C=O)[O][Ru-2]([NH3+])([NH3+])([NH3+])([NH3+])[O]C=O", "note": "[Ru360]", "values": [{"measurement": "IC50", "setting": "[1]", "value": 0.5, "unit": "µM"}]}, {"molecule": "saposin (scaffolding protein, 81 residues) (natural protein) SLPCDICKDVVTAAGDMLKDNATEEEILVYLEKTCDWLPKPNMSASCKEIVDSYLPVILDIIKGEMSRPGEVCSALNLCESLQ", "values": [{"measurement": "stoichiometry N", "setting": "cryo-EM structure", "value": 6}]}]}
